From article PMC6358775, “Elucidation of Vasodilation Response and Structure Activity Relationships of N^2,N^4-Disubstituted Quinazoline 2,4-Diamines in a Rat Pulmonary Artery Model” (Molecules, 2019)
Converted amounts (≈) assume the structure as drawn. Where a name gives a salt, the structure may show the parent alone. Read-outs that look alike come from different tables or passages of the source.

Tests used:
α1 adrenergic receptor = α1 adrenergic receptor antagonist; ChEMBL substructure search; cited from earlier work
Glucose Transporter = system: Glucose Transporter; design: method as in earlier work; conditions: ChEMBL substructure search; cited from earlier work
DHFR = conditions: ChEMBL substructure search; cited from earlier work
PDE-5 = PDE-5 (Homo sapiens, UniProt O76074); conditions: cited from earlier work
A549 cells = assay: MTT cytotoxicity assay in A549 cells; assay type: cell-based; conditions: Homo sapiens
Method: A 3-[4,5-dimehyl-2-thiazolyl]-2,5-diphenyl-2H-tetrazoliumbromide (MTT) assay was utilized to assess the concentration-response curves for quinazoline analogues as previously reported. A549 cells (ATCC CCL-185, human alveolar basal epithelial cell line) were used to account for the general cytotoxicity of compounds. Cells were cultured in DMEM medium containing fetal bovine serum (FBS; 10%), penicillin (10 U/mL), and streptomycin (100 U/mL). The temperature was maintained at 37 °C with 5% CO2. Cells were seeded for 16–18 h in DMEM and incubated for 72 h with the test compounds. After incubation, MTT (5 mg/mL in normal saline) was added with DMEM and incubated for 3 h. Careful decantation of the medium and addition of DMSO (50 µL) was done. Absorbance values were recorded at 570 nm after 5 min mechanical shaking of the microplate (Sunrise microplate reader, Tecan).
The activity was presented as the inhibitory concentration required to produce a 50% response (IC50). Prism 6.0 GraphPad Software Inc., (San Diego, CA, USA) was utilized for data fitting. 0.5% DMSO was used as the negative control.

[1] = system: endothelium-intact rat pulmonary arterial rings; assay: Vasorelaxation of PE pre-contracted endothelium-intact (E+) pulmonary arterial rings, organ bath; conditions: Rattus norvegicus
physchem = conditions: for solubility thermodynamic at 6 h: pH 7.4, aqueous buffer, thermodynamic from solid
Method: The solubility of the compounds under investigation here were assessed in phosphate buffer at pH 7.4 using the equilibrium shake-flask method.
An equilibrium shake-flask technique was used to determine the solubility of samples in PBS at pH 7.4. Approximately 1 mg of sample was placed in a 10 mL glass screw top vial and dissolved in 1 mL of 0.02 M PBS at pH 7.4. The solution was sonicated for 1 h, followed by shaking for 6 h (IKA HS 260). The saturated solution was then filtered using a nylon syringe filter. A standard solution of each sample was prepared by dissolving a weighed amount of the sample in 1 mL of DMSO. The concentration of sample dissolved in the PBS solution was determined by comparing the peak area of the PBS and DMSO standard using an Agilent 1100 series HPLC with a Sunshell C8 column (Chromanik Technologies Inc., Osaka, Japan). A 100 µL injection of the aqueous sample and 5 µL of DMSO solution (pre-diluted 100 fold using DMSO) were used.

[2] = system: endothelium-denuded rat pulmonary arterial rings; assay: Vasorelaxation of PE pre-contracted endothelium-denuded (E−) pulmonary arterial rings, organ bath
[3] = system: Aldehyde dehydrogenase 1A1; design: method as in earlier work; conditions: ChEMBL substructure search; cited from earlier work
[4] = system: PE-induced contraction of endothelium-denuded pulmonary arterial rings; assay: Inhibition of phenylephrine (PE)-induced contraction in endothelium-denuded arterial rings; design: species or system rat; conditions: Rattus norvegicus; 10 µM compound, 15 min pre-incubation, PE 0.0001–100 µM, E− rings; n = 3–5; read-out: % PE-Contraction Inhibition (SEM)
Method: These experiments were undertaken to assess the pharmacological activity of quinazoline analogues against the structurally related α1 receptor blocker (prazosin). In contrast to previous vasorelaxant experiments, this protocol was developed to determine the inhibitory effect of pre-incubated (15 min) inhibitors (10 µM) on the concentration-dependent vasoconstriction induced by cumulative addition of PE (0.0001–100 µM) in endothelium-denuded pulmonary arterial rings. Figure 5 illustrates the real time contractile response shown by the pulmonary arterial ring upon cumulative addition of PE, which evoked a concentration-dependent vasoconstriction, increasing the vessel’s tension.
After anesthesia with thiopental sodium (100 mg/kg, i.p.) (Anesthal®, Jagsonpsal Pharmaceutical Ltd., Haryana, India), rats were euthanized by exsanguination. Lungs were carefully excised, cleaned by the removal of connective tissue, and placed in cold physiological Krebs’ solution composed of (mM): NaCl 122; KCl 5; N-[2-hydroxyethyl] piperazine-N′-[2-ethane-sulfonic acid] (HEPES) 10; KH2PO4 0.5; NaH2PO4 0.5; MgCl2 1; CaCl2 1.8; and glucose 11 adjusted to pH 7.3 using 1 M NaOH. The pulmonary artery was isolated from the lungs and cut into rings approximately 2 mm in length before mounting in the organ bath chambers. Endothelial cells were mechanically removed in some experiments by gentle rubbing of the inner surface with forceps. Pulmonary arterial rings were mounted on intraluminal wires via stainless steel hooks maintaining the resting tension at 1 g and rings were equilibrated for 30 min before obtaining a stable contraction with 10^−5 M phenylephrine (PE). The rings were immersed in 10 mL baths containing physiological Krebs’ solution at 37 °C, which was continuously bubbled with air. Force transducers were connected with intraluminal wires to measure isometric tension via a Mac Lab A/D converter (Chart V5, A.D. Instruments, Castle Hill, NSW, Australia). The functional integrity of the endothelium in the vessels was confirmed by vasorelaxation of ≥70% with sequential addition of 10^−5 M acetylcholine (ACh) to pre-contracted vessels with 10^−5 M PE. Relaxations ≤30% to 10^−5 M ACh in vessels rubbed mechanically were considered successfully endothelium denuded.
The protocol included the assessment of the inhibitory vasoconstriction effect of quinazoline test compounds on endothelium-denuded arterial rings. Briefly, the arterial rings were treated with the α1-receptor blocker (prazosin) or test compound at a concentration of 10 µM for 15 min before construction of the second concentration response curve with cumulative addition of PE (0.0001–100 µM). The same conditions were used to test the effects of the solvent (DMSO 0.2%). The results were obtained in percentages by comparison of the maximum contraction without treatment with the contraction in the presence of the test compound [24, 36, 37].

COc1cc2nc(N(C)CCCNC(=O)C3CCCO3)nc(N)c2cc1OC (stereo not drawn) [Alfuzosin]
Activity (α1 adrenergic receptor): 3 nM

COc1cc2nc(N(C)C3CCN(Cc4ccccc4)CC3)nc(N)c2cc1OC [CHEMBL527902]
Activity (Glucose Transporter): 4.087 µM

COc1cccc2c(NCc3ccccc3)nc(NCCCN3CCCCC3C)nc12 (stereo not drawn) [CHEMBL546792]
Activity (Glucose Transporter): 4.102 µM

Cc1ccccc1Nc1nc(Nc2ccccc2)c2ccccc2n1.Cl [CHEMBL582356]
Activity (Glucose Transporter): 4.496 µM

CCOc1ccc2ccccc2c1-c1cc2nc(N)nc(N)c2cc1C [CHEMBL1818128]
Activity (DHFR): 4.5 nM

Clc1cnc(Nc2ccccc2)nc1NCc1ccccc1 [Compound 14]
PDE-5 activity (in words) (PDE-5): borderline PDE-5 inactive | IC50 (A549 cells; A549, MTT, 72 h incubation, read-out: A549 IC50, µM (S.D.)): > 100 µM | IC50 (A549 cells; Table S3, A549, read-out: Cytox. pIC50 (converted)): > 100 µM | Emax ([1]; maximal relaxation, endothelium-intact rings, up to 30 µM, mean ± SEM): 67.8 ± 5.34% | IC50 ([1]; Table S3, endothelium-intact, read-out: E+ Vaso. pIC50 (converted)): 4.47 µM | EC50 ([1]; endothelium-intact (E+) rings pre-contracted with 10^-5 M PE, cumulative 0.0001–30 µM, mean (SEM), n = 6, read-out: Vaso E+ EC50 µM (SEM)): 4.49 µM | Log Sol (physchem; 6 h, pH 7.4): 0.51 | Sol. pH7.4 (µM) (physchem; 6 h, pH 7.4): 3.27 µM | solubility thermodynamic at 6 h (physchem): 1020 µg/mL (≈ 3.28 mM) | IC50 ([2]; Table S3, endothelium-denuded, read-out: E- Vaso. pIC50 (converted)): 10.7 µM | EC50 ([2]; endothelium-denuded (E−) rings pre-contracted with 10^-5 M PE, cumulative 0.0001–30 µM, mean (SEM), n = 6, read-out: Vaso E− EC50 µM (SEM)): 10.7 µM | Emax ([2]; maximal relaxation, endothelium-denuded rings, up to 30 µM, mean ± SEM): 54.7 ± 6.12%

COc1cc2nc(N3CCN(C(=O)c4ccco4)CC3)nc(N)c2cc1OC [PRAZOSIN HYDROCHLORIDE]
Activity [3]: 25 µM

COc1cc2nc(N3CCN(C(=O)c4ccco4)CC3)nc(N)c2cc1OC [Prazosin (PZN), Prazosin HCl, reference compound]
inhibition at 10 µM [4]: 98% | Activity (α1 adrenergic receptor): 1 nM | Sol. pH7.4 mg/mL (physchem; 6 h, pH 7.4): 0.55 mg/mL | Sol. pH7.4 (µM) (physchem; 6 h, pH 7.4): 1.42 µM | solubility thermodynamic at 6 h (physchem): 550 µg/mL

COc1cc(NCc2ccc3nc(N)nc(N)c3c2C)cc(OC)c1OC [Trimetrexate]
Activity (DHFR): 3 nM
